Data reported in patent US10253041B2, “7-phenylethylamino-4H-pyrimido[4,5-d][1,3]oxazin-2-one compounds and their use as mutant IDH1 inhibitors” (Eli Lilly and Company, priority 2015, dated 2019).
Where two headings read alike, the source gives them in different places.

Experiments:
[1] = test system: IDH1 mutant R132C in fibrosarcoma cell line HT1080; assay: HT1080 cell assay (intracellular 2HG and αKG); format: cell-based; conditions: Homo sapiens; for IC50: 1 hour + 18 hours incubation
Protocol: To test the cellular inhibition of IDH1 mutant R132C, the fibrosarcoma cell line HT1080 (purchased from ATCC) is used. For testing cell-based inhibition of the R132H mutation, the U87MG glioma cell line (ATCC) was stably transfected with a DNA construct expressing the R132H mutant enzyme.
Fifteen thousand cells are plated in poly-D-lys coated 96 well plates (15,000 cells/well) 18-24 hours prior to treatment with compounds. Four hours prior to compound treatment, cells are glutamine-starved by removing normal media and replacing with glutamine-free media. Following starvation, cells are then treated with different concentrations of test compounds (20 μM to 1 nM) dissolved in glutamine free media containing DMSO at a final concentration of 0.2%. The initial compound incubation is for 1 hour at 37° C./5% CO2. After 1 hour, glutamine is added to a final 2 mM concentration and the treated cells are then incubated for a further 18 hours at 37° C./5% CO2. Following the 18 hour incubation, intracellular 2HG and αKG are analyzed in cell lysates. Lysates are prepared following removal of media and addition of buffer containing 25 mM Tris-HCl pH 7.5, 150 mM NaCl, 1 mM EDTA, 1 mM EGTA/1% Triton-X 100 to the cells. An aliquot of lysate is added to a mix of d6-αKG and d5-3HG as internal standards and the mixture is treated with O-benzylhydroxylamine in the presence of N-(3-dimethylaminopropyl)-N′-ethylcarbodiimide hydrochloride (EDC) and pyridine. Analyte derivatives are then extracted with EtOAc, dried, and then reconstituted with 50% MeOH in H2O. Samples prepared as described are injected into the HPLC to separate 2HG and αKG derivatives (and corresponding internal standards) using a reverse phase chromatography in a C18 column. Analysis of the samples is carried out using a 6460 triple quadrupole mass spectrometer (G6460A Agilent). The 2HG and αKG signals detected are transformed into analyte concentration using the ratio of αKG/d6-αKG and the ratio of 2HG/d5-3HG that is extrapolated within a calibration curve. Percent inhibition for each individual sample is obtained after normalizing calculated 2HG or aKG concentration to maximum and minimum references obtained in the presence and in the absence of glutamine during cell treatment with compounds. IC50 values are obtained from individual % inhibition using a sigmoidal dose-response 4-parameter equation. These calculations are carried out automatically using Activity Base (IDBS) or Screener (Genedata) data analysis programs.

IDH2/R172K = molecular target: T1, IDH2/R172K (Homo sapiens, UniProt P48735, R172K); assay: Biochemical assay for IDH2 R172K mutant enzyme (2HG by RapidFire MS); conditions: mean ± standard deviation of the mean; 90 minutes reaction
T1 construct: His-tag (N); made in house; host or cells: E. coli
T1 sequence (P48735 40-452 R172K): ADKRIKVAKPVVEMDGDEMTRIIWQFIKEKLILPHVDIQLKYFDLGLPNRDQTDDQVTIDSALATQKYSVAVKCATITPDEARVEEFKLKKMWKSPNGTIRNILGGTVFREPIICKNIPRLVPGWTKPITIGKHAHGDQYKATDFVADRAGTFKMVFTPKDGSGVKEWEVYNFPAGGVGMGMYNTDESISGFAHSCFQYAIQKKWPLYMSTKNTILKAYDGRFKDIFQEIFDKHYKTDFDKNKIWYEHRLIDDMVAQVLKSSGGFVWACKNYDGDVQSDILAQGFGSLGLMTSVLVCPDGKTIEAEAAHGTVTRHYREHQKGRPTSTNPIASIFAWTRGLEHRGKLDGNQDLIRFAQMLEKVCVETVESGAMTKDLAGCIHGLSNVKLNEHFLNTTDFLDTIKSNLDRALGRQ
Protocol: IDH1-R132H, IDH1-R132C, IDH2-R172K and IDH2-R140Q mutant enzymes catalyze the conversion of αKG to 2HG. 2HG is analyzed using in-line solid phase extraction and mass spectrometry. This analysis is carried out in a RapidFire® instrument coupled to a 6460 triple quadrupole mass spectrometer (G6460A Agilent).
IDH1 mutant (R132H and R132C) and IDH2 mutant (R140Q and R172K) proteins containing N-terminal His-tag are expressed in E. coli and purified using nickel affinity chromatography. The enzyme assays are carried out in V-bottom 96 well polypropylene plates containing 100 mM Tris-HCl buffer, 1 mM DTT, 0.005% TRITON™ X-100, 120 mM NaCl. For IDH1 R132H, α-ketoglutarate, NADPH and MnCl2 are included at final concentrations of 300 μM, 2.5 μM and 300 μM respectively. For IDH1 R132C, α-ketoglutarate, NADPH and MnCl2 are included at final concentrations of 100 μM, 10 μM and 100 μM respectively. For IDH2 R172K, α-ketoglutarate, NADPH and MnCl2 are included at final concentrations of 150 μM, 10 μM and 150 μM respectively. For IDH2 R140Q, α-ketoglutarate, NADPH and MnCl2 are included at final concentrations of 3000 μM, 10 μM and 100 μM respectively. Final pH=7.0. Test compound dissolved in DMSO stock is diluted in the reaction mix at a final DMSO concentration of 4%. Compounds are tested in dose-response format. The assay is started by addition of enzyme. Enzymes are used at the following final concentrations: IDH1 R132H, 2 nM; IDH1 R132C, 0.5 nM; IDH2 R172K, 1.2 nM; IDH2 R140Q, 1.2 nM. After 90 minutes the reaction is quenched by adding ACN (50:50) containing 3-hydroxy-1,5-pentanedioic-2,2,3,4,4-d5 acid (5d5-3HG) as an internal standard for mass spectrometry analysis and quantitation of reaction product. 2-Hydroxyglutarate (2HG) in quenched samples is separated using strong anionic exchange column chromatography (Phenomenex Strata-X-A SecurityGuard) and analyzed by mass spectrometry in a 6460 triple quadrupole mass spectrometer (G6460A Agilent). The 2HG signal detected is transformed into an analyte concentration using a calibration curve generated using known 2HG concentrations. […] IC50 values are obtained from the individual % inhibition values at different compound concentrations using a 4-parameter equation. These calculations are carried out using Activity Base (IDBS) or Screener (Genedata) data analysis programs.

[2] = HT-1080, intracellular αKG, read-out: HT1080 (R132C, αKG) IC50
[3] = HT-1080, 19 h, intracellular 2HG, read-out: HT1080 (R132C, 2-hydroxyglutarate) IC50

| Compound | HT1080 (R132C, 2-hydroxyglutarate) IC50 ([1]; HT-1080, 19 h, read-out: HT1080 (R132C, 2-hydroxyglutarate) IC50 (μM), intracellular 2HG, 1 hour + 18 hours incubation) [µM] | IC50 [1, 2] [µM] | IC50 (IDH2/R172K) [µM] | IC50 [1, 3] [µM] |
| --- | --- | --- | --- | --- |
| C=CC(=O)N1CC(COc2ccc([C@H](C)Nc3ncc4c(n3)N(CC)C(=O)OC4)cc2)C1 [Example 17, 1-Ethyl-7-[[(1S)-1-[4-[(1-prop-2-enoylazetidin-3-yl)methoxy]phenyl]ethyl]amino]-4H-pyrimido[4,5-d][1,3]oxazin-2-one] | – | > 20 | 1.74 | 0.099 ± 0.0351 |
| C=CC(=O)N1CCN(Cc2ccc([C@H](C)Nc3ncc4c(n3)N(C)C(=O)OC4)cc2)CC1 [Example 19, 1-Methyl-7-[[(1S)-1-[4-[(4-prop-2-enoylpiperazin-1-yl)methyl]phenyl]ethyl]amino]-4H-pyrimido[4,5-d][1,3]oxazin-2-one] | – | > 20 | 23 ± 12.4 | – |
| C=CC(=O)N1CCN(Cc2ccc([C@H](C)Nc3ncc4c(n3)N(CC(F)F)C(=O)OC4)cc2)CC1 [Example 20, 1-(2,2-difluoroethyl)-7-[[(1S)-1-[4-[(4-prop-2-enoylpiperazin-1-yl)methyl]phenyl]ethyl]amino]-4H-pyrimido[4,5-d][1,3]oxazin-2-one] | – | > 20 | 6.78 ± 2.4 | 0.0955 ± 0.0249 |
| C=CC(=O)N1CCN(Cc2ccc([C@H](C)Nc3ncc4c(n3)N(CCF)C(=O)OC4)cc2)CC1 [Example 21, 1-(2-fluoroethyl)-7-[[(1S)-1-[4-[(4-prop-2-enoylpiperazin-1-yl)methyl]phenyl]ethyl]amino]-4H-pyrimido[4,5-d][1,3]oxazin-2-one] | – | > 20 | 10.4 ± 7 | 0.408 |
| C=CC(=O)N1CC=C(COc2ccc([C@H](C)Nc3ncc4c(n3)N(CC)C(=O)OC4)cc2)C1 [Example 22, 1-ethyl-7-[[(1S)-1-[4-[(1-prop-2-enoyl-2,5-dihydropyrrol-3-yl)methoxy]phenyl]ethyl]amino]-4H-pyrimido[4,5-d][1,3]oxazin-2-one] | – | > 20 | 0.469 ± 0.355 | 0.0431 ± 0.044 |

The next lines start with the values.

| HT1080 (R132C, 2-hydroxyglutarate) IC50 ([1]; HT-1080, 19 h, read-out: HT1080 (R132C, 2-hydroxyglutarate) IC50 (μM), intracellular 2HG, 1 hour + 18 hours incubation) [µM] | IC50 [1, 2] [µM] | IC50 (IDH2/R172K) [µM] | IC50 [1, 3] [µM] | Compound |
| --- | --- | --- | --- | --- |
| 0.0278 ± 0.00623 | > 20 | 10.4 | – | C=CC(=O)N1CC2(CN(Cc3ccc([C@H](C)Nc4ncc5c(n4)N(C(C)C)C(=O)OC5)cc3)C2)C1 [Example 15, 1-Isopropyl-7-[[(1S)-1-[4-[(2-prop-2-enoyl-2,6-diazaspiro[3.3]heptan-6-yl)methyl]phenyl]ethyl]amino]-4H-pyrimido[4,5-d][1,3]oxazin-2-one] |
| – | > 20 | 4.1 | 0.0349 ± 0.0171 | C=CC(=O)N1CCN(Cc2ccc([C@H](C)Nc3ncc4c(n3)N(CC)C(=O)OC4)cc2F)CC1 [Example 16, 1-Ethyl-7-[[(1S)-1-[3-fluoro-4-[(4-prop-2-enoylpiperazin-1-yl)methyl]phenyl]ethyl]amino]-4H-pyrimido[4,5-d][1,3]oxazin-2-one] |
